{
  "source": "BindingDB's records for doi:10.1021/bi401043w",
  "about": "(Mayo Clinic, 2013)",
  "data": [
    {"target": "T1, Acetylcholinesterase (Mus musculus, UniProt P21836)", "T1 sequence (P21836 whole entry)": "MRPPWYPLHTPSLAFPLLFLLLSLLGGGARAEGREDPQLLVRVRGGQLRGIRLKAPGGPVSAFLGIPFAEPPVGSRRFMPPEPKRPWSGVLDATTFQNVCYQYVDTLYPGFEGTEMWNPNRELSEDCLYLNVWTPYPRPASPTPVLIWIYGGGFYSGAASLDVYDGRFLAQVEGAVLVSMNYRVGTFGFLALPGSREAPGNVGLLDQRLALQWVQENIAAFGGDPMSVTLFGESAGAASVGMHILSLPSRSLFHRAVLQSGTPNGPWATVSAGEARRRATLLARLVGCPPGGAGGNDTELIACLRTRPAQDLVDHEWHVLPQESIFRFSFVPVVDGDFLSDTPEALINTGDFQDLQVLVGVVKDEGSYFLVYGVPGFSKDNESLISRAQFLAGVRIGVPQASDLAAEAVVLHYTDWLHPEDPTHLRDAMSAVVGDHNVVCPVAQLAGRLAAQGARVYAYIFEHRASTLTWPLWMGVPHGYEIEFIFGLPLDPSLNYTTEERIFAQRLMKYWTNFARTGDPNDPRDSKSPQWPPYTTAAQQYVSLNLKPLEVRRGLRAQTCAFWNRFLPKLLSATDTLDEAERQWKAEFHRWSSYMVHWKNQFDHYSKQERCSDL", "experiment": "Assay of Substrate Hydrolysis", "conditions": "pH 7; 25 °C", "protocol": "(§1) Assays were conducted at 25 C in 20 mM sodium phosphate buffer (pH 7.0) and 0.01% bovine serum albumin unless otherwise noted. AChE concentrations were varied to optimize measured rates.", "units": {"Ki": "nM"}, "values": [
      {"compound": "O=c1ccc2ccccc2o1", "note": "[2H-chromen-2-one]", "Ki": 9300},
      {"compound": "CC[N+](C)(C)c1cccc(O)c1", "note": "[Edrophonium Chloride, 3]", "Ki": 250},
      {"compound": "C[n+]1c2ccccc2cc2ccccc21", "note": "[N-methylacridinium]", "Ki": 310}
    ]},
    {"target": "Acetylcholinesterase (Homo sapiens, UniProt P22303)", "sequence (P22303 whole entry)": "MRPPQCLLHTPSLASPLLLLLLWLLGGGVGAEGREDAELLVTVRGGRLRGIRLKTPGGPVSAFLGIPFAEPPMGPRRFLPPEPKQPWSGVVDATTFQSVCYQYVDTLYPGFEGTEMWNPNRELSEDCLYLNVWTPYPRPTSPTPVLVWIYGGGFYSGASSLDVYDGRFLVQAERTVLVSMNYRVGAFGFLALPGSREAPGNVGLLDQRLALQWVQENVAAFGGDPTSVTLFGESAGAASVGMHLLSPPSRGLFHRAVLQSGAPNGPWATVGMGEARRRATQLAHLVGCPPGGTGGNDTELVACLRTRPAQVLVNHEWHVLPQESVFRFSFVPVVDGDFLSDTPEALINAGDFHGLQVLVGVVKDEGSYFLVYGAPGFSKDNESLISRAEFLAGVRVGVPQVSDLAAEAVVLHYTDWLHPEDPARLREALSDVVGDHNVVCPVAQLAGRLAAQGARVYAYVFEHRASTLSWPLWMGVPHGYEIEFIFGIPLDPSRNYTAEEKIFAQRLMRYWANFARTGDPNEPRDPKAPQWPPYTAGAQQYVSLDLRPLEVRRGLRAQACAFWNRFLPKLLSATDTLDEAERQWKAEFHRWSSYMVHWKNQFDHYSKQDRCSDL", "experiment": "Assay of Substrate Hydrolysis", "conditions": "pH 7; 25 °C", "protocol": "as §1", "units": {"Ki": "nM"}, "values": [
      {"compound": "COc1cc(-c2cc3c(c(=O)o2)C[C@]2(O)[C@@]4(C)C(=O)C=CC(C)(C)[C@]4(O)CC[C@@]2(C)O3)cc(OC)c1OC", "Ki": 1.7},
      {"compound": "CCC1=C[C@@H]2Cc3nc4cc(Cl)ccc4c(N)c3[C@H](C1)C2", "note": "(racemic) [(1S)-7-chloro-15-ethyl-10-azatetracyclo[11.3.1.0^{2,11}.0^{4,9}]heptadeca-2(11),3,5,7,9,14-hexaen-3-amine]", "Ki": 0.026},
      {"compound": "C/C=C1\\C2C=C(C)CC1(N)c1ccc(=O)[nH]c1C2", "note": "(stereo not drawn) [(+)-Huperzine A]", "Ki": 4.6},
      {"compound": "COc1cc2c(c3oc(=O)c4c(c13)CCC4=O)[C@@H]1C=CO[C@@H]1O2", "note": "[Aflatoxin B1]", "Ki": 28000},
      {"compound": "Cc1cccc2c3c(ccc12)C1=C(C(=O)C3=O)[C@@H](C)CO1", "note": "[Dihydrotanshinone I]", "Ki": 750},
      {"compound": "Cc1ccc2c(c1)sc(-c1ccc(N(C)C)cc1)[n+]2C", "note": "[Thioflavin T, 1]", "Ki": 1000}
    ]}
  ]
}
